From patent publication US10508120B2, “TYK2 inhibitors and uses thereof” (Nimbus Lakshmi, Inc., priority 2017, dated 2019)

Experiments:
JAK2 kinase domain (JH1) = JAK2 kinase domain (JH1) (Homo sapiens (Human), UniProt O60674); test: JAK2 Radioactive Kinase Assay; format: biochemical; settings: compound at 10 μM; ATP 10 μM; read-out: JAK2 JH1% Inhibition @ 10 μM
Outline: (§1)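 Read-out is percent inhibition from a radioactive kinase reaction, measured with compound at 10 μM.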

[1] = biological target: Tyk2/JAK2 (heterodimeric complex) (Homo sapiens (Human), UniProt P29597); test: IL-12 Induced pSTAT4 in Human PBMC; format: cell-based; settings: 1.7 ng/mL IL-12
Sequence of Tyk2/JAK2 (heterodimeric complex) (P29597 whole entry, other chains not shown): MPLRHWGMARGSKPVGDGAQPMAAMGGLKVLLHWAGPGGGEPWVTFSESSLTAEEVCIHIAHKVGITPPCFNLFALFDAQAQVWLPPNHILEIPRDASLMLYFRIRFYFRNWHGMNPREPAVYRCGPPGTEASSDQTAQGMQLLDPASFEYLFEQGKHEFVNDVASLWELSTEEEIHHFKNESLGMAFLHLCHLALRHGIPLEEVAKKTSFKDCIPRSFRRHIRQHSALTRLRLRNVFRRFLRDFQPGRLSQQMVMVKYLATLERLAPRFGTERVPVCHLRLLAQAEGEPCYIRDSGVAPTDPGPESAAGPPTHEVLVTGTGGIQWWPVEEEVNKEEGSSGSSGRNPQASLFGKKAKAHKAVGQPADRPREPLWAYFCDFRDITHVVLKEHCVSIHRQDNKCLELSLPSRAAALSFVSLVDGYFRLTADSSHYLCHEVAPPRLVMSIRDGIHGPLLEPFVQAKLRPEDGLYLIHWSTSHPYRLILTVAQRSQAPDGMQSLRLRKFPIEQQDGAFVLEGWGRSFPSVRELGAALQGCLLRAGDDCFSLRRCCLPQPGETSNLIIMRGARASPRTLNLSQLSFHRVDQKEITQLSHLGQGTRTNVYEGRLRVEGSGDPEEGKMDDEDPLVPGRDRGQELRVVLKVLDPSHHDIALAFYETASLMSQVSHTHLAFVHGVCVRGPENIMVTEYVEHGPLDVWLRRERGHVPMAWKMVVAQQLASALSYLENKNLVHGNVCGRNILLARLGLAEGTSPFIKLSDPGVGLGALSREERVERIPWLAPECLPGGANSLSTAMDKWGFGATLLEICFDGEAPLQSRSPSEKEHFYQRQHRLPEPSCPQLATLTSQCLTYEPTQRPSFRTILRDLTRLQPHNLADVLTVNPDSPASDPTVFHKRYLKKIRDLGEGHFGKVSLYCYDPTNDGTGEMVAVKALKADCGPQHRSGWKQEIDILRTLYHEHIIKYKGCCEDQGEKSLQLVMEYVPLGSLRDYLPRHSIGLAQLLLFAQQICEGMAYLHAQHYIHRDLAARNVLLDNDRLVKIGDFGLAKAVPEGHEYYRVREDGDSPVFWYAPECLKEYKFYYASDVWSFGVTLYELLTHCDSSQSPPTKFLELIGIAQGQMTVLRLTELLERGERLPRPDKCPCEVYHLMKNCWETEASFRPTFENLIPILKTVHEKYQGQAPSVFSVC
Excerpt: The IL-12 Induced pSTAT4 assay evaluates the inhibition of IL-12 induced STAT4 phophorylation mediated by Tyk2/JAK2 (heterodimeric complex).

Tyk2 kinase domain (DH1) = Tyk2 kinase domain (DH1) (Homo sapiens (Human), UniProt P29597); test: Tyk2 Radioactive Kinase Assay; format: biochemical; settings: compound at 10 μM; ATP 10 μM; read-out: Tyk2 JH1% Inhibition @ 10 μM
Sequence of Tyk2 kinase domain (DH1) (P29597 897-1176): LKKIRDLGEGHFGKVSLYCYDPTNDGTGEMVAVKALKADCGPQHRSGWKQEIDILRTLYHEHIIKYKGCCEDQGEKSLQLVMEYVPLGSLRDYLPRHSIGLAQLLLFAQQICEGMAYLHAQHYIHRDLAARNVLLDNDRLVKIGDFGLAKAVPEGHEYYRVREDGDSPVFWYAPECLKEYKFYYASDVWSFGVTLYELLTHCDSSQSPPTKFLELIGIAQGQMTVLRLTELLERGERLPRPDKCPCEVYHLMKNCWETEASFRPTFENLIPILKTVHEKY
Outline: as §1

[2] = biological target: JAK2/JAK2 homdimeric complex (Homo sapiens (Human), UniProt O60674); test: GM-CSF Induced pSTAT5 in Human PBMC; format: cell-based; settings: GM-CSF 5 ng/mL for 20 minutes, pSTAT5 by MSD, read-out: PBMC_GMCSF_pSTAT5 IC50
Sequence of JAK2/JAK2 homdimeric complex (O60674 whole entry, the tested form may be a part): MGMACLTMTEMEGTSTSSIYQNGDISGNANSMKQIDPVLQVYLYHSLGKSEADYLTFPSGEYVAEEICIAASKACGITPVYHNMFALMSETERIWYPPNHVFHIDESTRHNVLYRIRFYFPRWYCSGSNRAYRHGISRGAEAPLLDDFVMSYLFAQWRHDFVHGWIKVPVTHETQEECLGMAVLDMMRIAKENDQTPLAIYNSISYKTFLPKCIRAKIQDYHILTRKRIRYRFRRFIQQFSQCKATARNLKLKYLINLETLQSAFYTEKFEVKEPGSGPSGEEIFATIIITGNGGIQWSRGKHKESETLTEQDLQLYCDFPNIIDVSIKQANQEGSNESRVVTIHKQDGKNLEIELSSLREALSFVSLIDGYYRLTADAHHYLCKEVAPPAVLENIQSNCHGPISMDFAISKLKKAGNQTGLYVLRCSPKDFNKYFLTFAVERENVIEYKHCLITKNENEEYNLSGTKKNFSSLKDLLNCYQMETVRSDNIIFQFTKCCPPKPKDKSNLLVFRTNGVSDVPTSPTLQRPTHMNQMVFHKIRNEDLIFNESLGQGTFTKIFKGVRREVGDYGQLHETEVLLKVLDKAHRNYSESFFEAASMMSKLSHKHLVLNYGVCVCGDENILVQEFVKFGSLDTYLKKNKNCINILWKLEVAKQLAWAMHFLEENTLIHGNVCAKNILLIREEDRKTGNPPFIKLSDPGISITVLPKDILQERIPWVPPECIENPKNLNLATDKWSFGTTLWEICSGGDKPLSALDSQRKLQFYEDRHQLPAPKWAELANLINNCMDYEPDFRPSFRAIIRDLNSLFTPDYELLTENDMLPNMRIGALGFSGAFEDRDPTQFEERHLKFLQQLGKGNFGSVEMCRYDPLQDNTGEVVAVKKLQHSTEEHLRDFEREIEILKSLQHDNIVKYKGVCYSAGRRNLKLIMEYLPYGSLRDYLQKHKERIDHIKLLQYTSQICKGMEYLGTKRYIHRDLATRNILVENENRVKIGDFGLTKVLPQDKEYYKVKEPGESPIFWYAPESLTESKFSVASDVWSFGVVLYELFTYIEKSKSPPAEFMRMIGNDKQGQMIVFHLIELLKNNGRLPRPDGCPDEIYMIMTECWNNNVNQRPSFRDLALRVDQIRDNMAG
Sequence of JAK2/JAK2 homdimeric complex (P32927 17-897 partner): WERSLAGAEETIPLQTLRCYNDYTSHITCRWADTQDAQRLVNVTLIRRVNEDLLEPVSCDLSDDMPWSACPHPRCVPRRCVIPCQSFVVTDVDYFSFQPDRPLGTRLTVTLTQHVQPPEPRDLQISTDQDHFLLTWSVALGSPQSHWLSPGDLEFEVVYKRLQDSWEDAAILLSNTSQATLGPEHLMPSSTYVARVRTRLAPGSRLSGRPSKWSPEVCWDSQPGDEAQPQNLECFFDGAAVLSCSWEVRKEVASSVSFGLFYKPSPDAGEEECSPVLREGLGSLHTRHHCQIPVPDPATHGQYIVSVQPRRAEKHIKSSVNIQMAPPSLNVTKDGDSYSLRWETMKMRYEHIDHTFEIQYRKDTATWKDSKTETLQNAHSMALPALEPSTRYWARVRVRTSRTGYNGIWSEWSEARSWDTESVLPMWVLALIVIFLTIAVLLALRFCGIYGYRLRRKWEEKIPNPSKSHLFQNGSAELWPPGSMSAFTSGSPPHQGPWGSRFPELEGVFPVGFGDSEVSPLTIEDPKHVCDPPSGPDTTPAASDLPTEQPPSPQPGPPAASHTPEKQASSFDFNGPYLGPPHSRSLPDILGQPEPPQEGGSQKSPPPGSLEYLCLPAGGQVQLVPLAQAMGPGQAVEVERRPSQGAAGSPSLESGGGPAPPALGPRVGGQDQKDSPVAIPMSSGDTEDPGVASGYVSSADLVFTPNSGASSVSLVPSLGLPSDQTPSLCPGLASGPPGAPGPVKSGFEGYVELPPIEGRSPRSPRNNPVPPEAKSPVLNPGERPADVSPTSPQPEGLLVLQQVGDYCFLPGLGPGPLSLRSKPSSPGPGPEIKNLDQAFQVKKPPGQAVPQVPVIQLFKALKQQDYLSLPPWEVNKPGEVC

[3] = biological target: human TYK2 (JH2domain-pseudokinase) (Homo sapiens (Human), UniProt P29597); test: TYK2 JH2 Domain Binding Assay (KINOMEscan)
Sequence of human TYK2 (JH2domain-pseudokinase) (P29597 556-888): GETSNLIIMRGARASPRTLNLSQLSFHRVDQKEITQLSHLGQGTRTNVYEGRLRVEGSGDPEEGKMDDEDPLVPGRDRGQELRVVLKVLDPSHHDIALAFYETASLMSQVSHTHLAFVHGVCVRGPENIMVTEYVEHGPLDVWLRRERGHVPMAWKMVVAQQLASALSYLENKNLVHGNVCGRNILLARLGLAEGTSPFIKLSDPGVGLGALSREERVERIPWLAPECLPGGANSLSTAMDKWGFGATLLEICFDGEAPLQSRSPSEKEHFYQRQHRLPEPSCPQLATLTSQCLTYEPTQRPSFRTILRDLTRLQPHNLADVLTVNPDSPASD
Outline: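 Kds, run in duplicate, came from Hill fits (slope fixed at −1) of an 11-point 3-fold dilution series starting at 30,000 nM. Bead-retained TYK2 JH2 (aa G556–D888)–NFkB DBD fusion, DNA-tagged and expressed in HEK293 cells, was read by qPCR after 1 h room-temperature binding in 0.9% DMSO.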

Sequence of JAK2 kinase domain (JH1) (O60674 849-1124): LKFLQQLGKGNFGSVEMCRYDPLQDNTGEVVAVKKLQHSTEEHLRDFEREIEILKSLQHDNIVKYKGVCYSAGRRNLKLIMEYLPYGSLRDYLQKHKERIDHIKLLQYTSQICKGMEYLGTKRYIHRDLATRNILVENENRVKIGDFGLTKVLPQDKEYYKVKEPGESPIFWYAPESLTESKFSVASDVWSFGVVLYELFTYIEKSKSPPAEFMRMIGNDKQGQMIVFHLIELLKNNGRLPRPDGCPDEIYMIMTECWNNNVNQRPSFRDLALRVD

CNc1cc(Nc2cc(F)cn([C@H]3CCCOC3)c2=O)nc2c(C(=O)N[C@H]3C[C@H]3F)cnn12 [I-559]
inhibition at 10 µM (JAK2 kinase domain (JH1)): < 50% | IC50 [1]: < 100 nM | inhibition at 10 µM (Tyk2 kinase domain (DH1)): < 50% | IC50 [2]: > 50000 nM | Kd [3]: < 0.2 nM

CNc1cc(Nc2cccn([C@H]3CC[C@H](OC)CC3)c2=O)nc2c(C(=O)N[C@@H]3CC[C@@H]3O)cnn12 [I-560]
inhibition at 10 µM (JAK2 kinase domain (JH1)): < 50% | IC50 [1]: < 100 nM | inhibition at 10 µM (Tyk2 kinase domain (DH1)): < 50% | IC50 [2]: > 2500 nM | Kd [3]: < 0.2 nM

CNc1cc(Nc2cccc([C@@H]3CCCOC3)n2)nc2c(C(=O)N[C@H]3C[C@H]3F)cnn12 [I-562]
inhibition at 10 µM (JAK2 kinase domain (JH1)): 50 to 70% | IC50 [1]: < 100 nM | inhibition at 10 µM (Tyk2 kinase domain (DH1)): < 50% | IC50 [2]: > 50000 nM | Kd [3]: < 0.2 nM

CNc1cc(Nc2cccc([C@H]3CCCOC3)n2)nc2c(C(=O)N[C@H]3C[C@H]3F)cnn12 [I-563]
inhibition at 10 µM (JAK2 kinase domain (JH1)): < 50% | IC50 [1]: < 100 nM | inhibition at 10 µM (Tyk2 kinase domain (DH1)): < 50% | IC50 [2]: > 50000 nM | Kd [3]: < 0.2 nM

CNc1cc(Nc2cccn(C3CCN(CCF)CC3)c2=O)nc2c(C(=O)N[C@H]3C[C@H]3F)cnn12 [I-570]
inhibition at 10 µM (JAK2 kinase domain (JH1)): < 50% | IC50 [1]: < 100 nM | inhibition at 10 µM (Tyk2 kinase domain (DH1)): < 50% | IC50 [2]: > 50000 nM | Kd [3]: < 0.2 nM

CNc1cc(-c2cn(C(C)C)c3ncccc23)nc2c(C(=O)N[C@@H]3CC[C@@H]3O)cnn12 [I-578]
inhibition at 10 µM (JAK2 kinase domain (JH1)): < 50% | IC50 [1]: < 100 nM | inhibition at 10 µM (Tyk2 kinase domain (DH1)): < 50% | IC50 [2]: > 50000 nM | Kd [3]: < 0.2 nM

CNc1cc(-c2cn(CCN3CCCCC3)c3ncccc23)nc2c(C(=O)N[C@H]3C[C@H]3F)cnn12 [I-585]
inhibition at 10 µM (JAK2 kinase domain (JH1)): < 50% | IC50 [1]: < 100 nM | inhibition at 10 µM (Tyk2 kinase domain (DH1)): < 50% | IC50 [2]: > 12500 nM | Kd [3]: < 0.2 nM

CNc1cc(-c2cn(C(C)C)c3ncccc23)nc2c(C(=O)N[C@H]3CC[C@@H]3O)cnn12 [I-586, N-((1R,2R)-2-hydroycyclobutyl)-5-(1-isopropyl-1H-pyrrolo[2,3-b]pyridin-3-yl)-7-(methylamino)pyrazolo[1,5-a]pyrimidine-3-carboxamide]
inhibition at 10 µM (JAK2 kinase domain (JH1)): < 50% | IC50 [1]: < 100 nM | inhibition at 10 µM (Tyk2 kinase domain (DH1)): < 50% | IC50 [2]: > 50000 nM | Kd [3]: < 0.2 nM

CNc1cc(Nc2cccc(N3CCOCC3)n2)nc2c(C(=O)N[C@H]3C[C@H]3F)cnn12 [I-590]
inhibition at 10 µM (JAK2 kinase domain (JH1)): 50 to 70% | IC50 [1]: < 100 nM | inhibition at 10 µM (Tyk2 kinase domain (DH1)): < 50% | IC50 [2]: > 12500 nM | Kd [3]: < 0.2 nM

CNc1cc(Nc2cccc3ocnc23)nc2c(C(=O)NC3CC3)cnn12 [I-591]
inhibition at 10 µM (JAK2 kinase domain (JH1)): < 50% | IC50 [1]: < 100 nM | inhibition at 10 µM (Tyk2 kinase domain (DH1)): < 50% | IC50 [2]: > 12500 nM | Kd [3]: < 0.2 nM

CNc1cc(Nc2cccc3ocnc23)nc2c(C(=O)N[C@H]3C[C@H]3F)cnn12 [I-592]
inhibition at 10 µM (JAK2 kinase domain (JH1)): < 50% | IC50 [1]: < 100 nM | inhibition at 10 µM (Tyk2 kinase domain (DH1)): < 50% | IC50 [2]: > 12500 nM | Kd [3]: < 0.2 nM

CNc1cc(Nc2cccc([C@@H]3CCCOC3)n2)nc2c(C(=O)N[C@H]3CC[C@@H]3O)cnn12 [I-603]
inhibition at 10 µM (JAK2 kinase domain (JH1)): 50 to 70% | IC50 [1]: < 100 nM | inhibition at 10 µM (Tyk2 kinase domain (DH1)): 50 to 70% | IC50 [2]: > 2500 nM | Kd [3]: < 0.2 nM

CNc1cc(Nc2cccn(-c3cn(C)nc3F)c2=O)nc2c(C(=O)NC3CC3)cnn12 [I-606]
inhibition at 10 µM (JAK2 kinase domain (JH1)): < 50% | IC50 [1]: 100 to 500 nM | inhibition at 10 µM (Tyk2 kinase domain (DH1)): < 50% | IC50 [2]: > 12500 nM | Kd [3]: < 0.2 nM

CNc1cc(Nc2cccn(-c3cn(C)nc3F)c2=O)nc2c(C(=O)N[C@H]3C[C@H]3F)cnn12 [I-607]
inhibition at 10 µM (JAK2 kinase domain (JH1)): < 50% | IC50 [1]: < 100 nM | inhibition at 10 µM (Tyk2 kinase domain (DH1)): < 50% | IC50 [2]: > 50000 nM | Kd [3]: < 0.2 nM

CNc1cc(-c2cn(C(C)C)c3ncccc23)nc2c(C(=O)N[C@H]3C[C@H](O)C3)cnn12 [I-630, N-((1r, 3r)-3-hydroxycyclobutyl)-5-(1-isopropyl-1H-pyrrolo[2,3-b]pyridin-3-yl)-7-(methylamino)pyrazolo[1,5-a]pyrimidine-3-carboxamide]
inhibition at 10 µM (JAK2 kinase domain (JH1)): < 50% | IC50 [1]: < 100 nM | inhibition at 10 µM (Tyk2 kinase domain (DH1)): < 50% | IC50 [2]: > 2500 nM | Kd [3]: < 0.2 nM

CNc1cc(Nc2cccn([C@H]3CC[C@H](OC)CC3)c2=O)nc2c(C(=O)N[C@@H]3CC[C@H]3O)cnn12 [I-635]
inhibition at 10 µM (JAK2 kinase domain (JH1)): < 50% | IC50 [1]: < 100 nM | inhibition at 10 µM (Tyk2 kinase domain (DH1)): < 50% | IC50 [2]: > 50000 nM | Kd [3]: < 0.2 nM

CNc1cc(-c2cn(C(C)C)c3ncccc23)nc2c(C(=O)N[C@H]3CC[C@H]3O)cnn12 [I-637]
inhibition at 10 µM (JAK2 kinase domain (JH1)): < 50% | IC50 [1]: < 100 nM | inhibition at 10 µM (Tyk2 kinase domain (DH1)): < 50% | IC50 [2]: > 12500 nM | Kd [3]: < 0.2 nM
